The subject of one data set is Podosphaera leucotricha. Put plainly: Podosphaera test (apple)/protective. As to conditions: protective, evaluation 10 days after inoculation. It is filed as in vivo. As to the method: Podosphaera test (apple)/protective Solvent: 47 parts by weight of acetone Emulsifier: 3 parts by weight of alkylaryl polyglycol ether To produce a suitable preparation of active compound, 1 part by weight of active compound is mixed with the stated amounts of solvent and emulsifier, and the concentrate is diluted with water to the desired concentration. To test for protective activity, young plants are sprayed with the preparation of active compound at the stated application rate. After the spray coating has dried on, the plants are inoculated with an aqueous spore suspension of the causative organism of apple mildew Podosphaera leucotricha. The plants are then placed in a greenhouse at approximately 23° C. and a relative atmospheric humidity of approximately 70%. Evaluation was carried out 10 days after the inoculation. 0% means an efficacy which corresponds to that of the control, whereas an efficacy of 100% means that no infections are observed.

The subject of data set [1] is Puccinia recondita. Put plainly: Puccinia test (wheat)/protective. It is filed as in vivo. As to conditions: protective, application rate 125 g/ha, evaluation 10 days after inoculation. Here is the method: (§1) Puccinia test (wheat)/protective Solvent: 25 parts by weight of N,N-dimethylacetamide Emulsifier: 0.6 parts by weight of alkylaryl polyglycol ether To produce a suitable preparation of active compound, 1 part by weight of active compound is mixed with the stated amounts of solvent and emulsifier, and the concentrate is diluted with water to the desired concentration. To test for protective activity, young plants are sprayed with the preparation of active compound at the stated application rate. After the spray coating has dried on, the plants are sprayed with a Conidia 683 suspension of Puccinia recondita. The plants remain in an incubation cabin at 20° C. and 100% relative atmospheric humidity for 48 hours. The plants are placed in a greenhouse at a temperature of approximately 20° C. and a relative atmospheric humidity of approximately 80% to promote the development of rust pustules. Evaluation is carried out 10 days after the inoculation. 0% means an efficacy which corresponds to that of the control, whereas an efficacy of 100% means that no infections are observed.

The test system of data set [2] is Puccinia recondita. Put plainly: Puccinia test (wheat)/curative. Format: in vivo. To be noted: curative, application rate 125 g/ha, evaluation 10 days after inoculation. As to the method:
as §1, with “(wheat)/curative” for “(wheat)/protective”, “curative” for “protective”, “with” for “with the preparation of active compound at the stated application rate. After the spray coating has dried on, the plants are sprayed with”, “Conidia” for “Conidia 683”, “hours. The plants are then sprayed with the preparation of active compound at the stated application rate.” for “hours.”

The subject of data set [3] is Erysiphe graminis f.sp. hordei. Put plainly: Erysiphe test (barley)/protective. Format: in vivo. To be noted: protective, application rate 125 g/ha, evaluation 7 days after inoculation. As to the method: (§2) Erysiphe test (barley)/protective Solvent: 25 parts by weight of N,N-dimethylacetamide Emulsifier: 0.6 parts by weight of alkylaryl polyglycol ether To produce a suitable preparation of active compound, 1 part by weight of active compound is mixed with the stated amounts of solvent and emulsifier, and the concentrate is diluted with water to the desired concentration. To test for protective activity, young plants are sprayed with the preparation of active compound at the stated application rate. After the spray coating has dried on, the plants are dusted with spores of Erysiphe graminis f.sp. hordei. The plants are placed in a greenhouse at a temperature of approximately 20° C. and a relative atmospheric humidity of approximately 80% to promote the development of mildew pustules. Evaluation is carried out 7 days after the inoculation. 0% means an efficacy which corresponds to that of the control, whereas an efficacy of 100% means that no infections are observed.

Another data set deals with Coriolus versicolor. Put plainly: Inhibition test on giant colonies of Basidiomycetes. Format: cell-based. As to conditions: Trametes versicolor; 6 ppm of active compound, malt extract peptone agar, 26° C., evaluation after 3 or 7 days; read-out: Inhibition in per cent of radial growth of giant colonies. Here is the method:
Inhibition test on giant colonies of Basidiomycetes Solvent: Dimethylsulphoxide To produce a suitable preparation of active compound, 0.2 parts by weight of active compound are admixed to 99.8 parts by weight of the abovementioned solvent. An agar, prepared by using malt extract peptone, is mixed in a liquid state with the preparation of active compound at the particular desired application rate. After solidification, the resultant nutrient medium is incubated at 26° C. with mycelium pieces punched out of colonies of Coriolus versicolor. Evaluation is carried out after 3 or 7 days' storage at 26° C. by measuring the growth of the mycelium and scoring the resulting inhibition in percent in comparison to the untreated control. 0% means an inhibition of growth which corresponds to that of the untreated control, while an inhibition of growth of 100% means that no growth of mycelium is observed.

Data set [4] concerns Erysiphe graminis f.sp. tritici. Put plainly: Erysiphe test (wheat)/protective. Format: in vivo. To be noted: protective, application rate 250 g/ha, evaluation 7 days after inoculation. As to the method:
as §2, with “(wheat)/protective” for “(barley)/protective”, “tritici.” for “hordei.”

A further data set relates to Leptosphaeria nodorum. Put plainly: Leptosphaeria nodorum test (wheat)/protective. Format: in vivo. To be noted: protective, application rate 250 g/ha, evaluation 10 days after inoculation. Here is the method:
Leptosphaeria nodorum test (wheat)/protective Solvent: 25 parts by weight of N,N-dimethylacetamide Emulsifier: 0.6 parts by weight of alkylaryl polyglycol ether To produce a suitable preparation of active compound, 1 part by weight of active compound is mixed with the stated amounts of solvent and emulsifier, and the concentrate is diluted with water to the desired concentration. To test for protective activity, young plants are sprayed with the preparation of active compound at the stated application rate. After the spray coating has dried on, the plants are dusted with a spore suspension of Leptosphaeria nodorum. The plants remain in an incubation cabin at 20° C. and 100% relative atmospheric humidity for 48 hours. The plants are placed in a greenhouse at a temperature of approximately 15° C. and a relative atmospheric humidity of 80%. Evaluation is carried out 10 days after the inoculation. 0% means an efficacy which corresponds to that of the control, whereas an efficacy of 100% means that no infections are observed.

Data set [5] deals with Erysiphe graminis f.sp. hordei. Put plainly: Erysiphe test (barley)/curative. It is filed as in vivo. To be noted: curative (sprayed 48 hours after inoculation), application rate 250 g/ha, evaluation 7 days after inoculation. Here is the method: as §2, with “(barley)/curative” for “(barley)/protective”, “curative” for “protective”, “young plants are dusted with spores of Erysiphe graminis f.sp. hordei. 48 hours after the inoculation, the” for “young”, “rate.” for “rate. After the spray coating has dried on, the plants are dusted with spores of Erysiphe graminis f.sp. hordei.”

Each structure is given as a SMILES string.

The results in this text go back to US6414007B1, “Oxiranyl-triazoline thiones and their use as microbicides” (Bayer Aktiengesellschaft, priority 1997, dated 2002).

As a reminder, the melting point is the temperature, or range, at which the solid turns liquid. As usually defined, the inhibition is the percentage by which the read-out fell short of the control.

`COCCNC(=O)n1cnn(CC2(c3ccc(F)cc3)OC2c2ccccc2Cl)c1=S` (stereo not drawn) [Example 2]: the melting point was 105 to 107 °C. In the data set on Podosphaera leucotricha (application rate 1 g/ha), this compound returned an Efficacy in % of 88%. Also, the Efficacy in % with Podosphaera leucotricha (application rate 10 g/ha) is 100%. The Efficacy in % in the data set on Puccinia recondita [1] amounted to 100%. Besides, the Efficacy in % in the data set on Puccinia recondita [2] worked out at 100%. In [3], this compound gave an Efficacy in % of 100%.
With `Fc1ccc(C2(Cn3nc[nH]c3=S)OC2c2ccccc2Cl)cc1` (stereo not drawn) [A, 3-(2-chloro-phenyl)-2-(4-fluoro-phenyl)-2-[(4,5-dihydro-5-thiono-1,2,4-triazol-1-yl)-methyl]-oxirane, reference compound], the Efficacy in % is on record as 57% with Podosphaera leucotricha (application rate 1 g/ha) and 92% with Podosphaera leucotricha (application rate 10 g/ha).
In turn, `CC(C)NC(=O)n1cnn(CC2(c3ccc(F)cc3)OC2c2ccccc2Cl)c1=S` (stereo not drawn) [Example 3] showed a melting point of 104 to 106 °C. For the same compound, the Efficacy in % in the data set with Podosphaera leucotricha (application rate 1 g/ha) is reported as 80%. In the data set with Podosphaera leucotricha (application rate 10 g/ha), this compound yielded an Efficacy in % of 100%. Further, the inhibition at 6 ppm in the data set with Coriolus versicolor stood at 100%. This compound also had an Efficacy in % in [4] of 100%. In addition, the Efficacy in % in the data set with Puccinia recondita [2] came to 100%. This compound also had an Efficacy in % in data set [3] of 100%.
As to `CCOCCCNC(=O)n1cnn(CC2(c3ccc(F)cc3)OC2c2ccccc2Cl)c1=S` (stereo not drawn) [Example 1], the Efficacy in % with Podosphaera leucotricha (application rate 1 g/ha) worked out at 65%; in the data set on Podosphaera leucotricha (application rate 10 g/ha), 100%; with Puccinia recondita [1], 100%; with Leptosphaeria nodorum it was 100%; in data set [4], 100%; in the data set with Puccinia recondita [2], 100%. The Efficacy in % in data set [5] and in data set [3] was 100% in each case. The inhibition at 6 ppm in the data set with Coriolus versicolor was found to be 100%.
